Measurements: US8859541B2, “6-alkynylpyridines” (Boehringer Ingelheim International GmbH, priority 2012, dated 2014)

What follows are molecules tested against T1, XIAP BIR3 (Homo sapiens, UniProt P98170) (assay: XIAP BIR3 binding assay (DELFIA), displacement of SMAC peptide). Settings: GST-fusion BIR3 domain (aa 241 to 356) 10 nM, SMAC peptide 10 nM; activity of the (S)-isomers.
T1 construct: covering amino acids 241 to 356; XIAP BIR3; made in house; host or cells: E. coli
T1 sequence (P98170 241-356): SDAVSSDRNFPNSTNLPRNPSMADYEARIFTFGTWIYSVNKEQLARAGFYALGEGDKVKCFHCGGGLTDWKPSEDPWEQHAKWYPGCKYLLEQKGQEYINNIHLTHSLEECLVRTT
Description: Biological Methods XIAP BIR3 and cIAP1 BIR3 Binding Assays (DELFIA)
Peptide […]-Lys(Biotin), representing the N-terminus of mature human SMAC (SMAC peptide), was used as interaction partner in the protein-peptide interaction assay.
BIR3 domains (10 nM) were incubated with SMAC peptide (10 nM) in Assay Buffer (50 mM Tris, 120 mM NaCl, 0.1% BSA, 1 mM DTT, 0.05% TritonX100) for one hour at room temperature in the presence of inhibitiory compounds. The assay mixture was transferred to a strepatvidin coated plate and incubated for one hour at room temperature to allow binding of the biotinylated peptide and associated BIR3 domains to the plate. After several washing steps Eu labeled anti-GST antibody (e.g. Perkin Elmer DELFIA Eu-N1-antiGST AD0250) was added to detect BIR3 domain-SMAC peptide interactions according to Perkin Elmer's instructions. […] Time resolved Europium fluoresecence was measured in a Wallac Victor using Standard assay settings.
DELFIA assay results were plotted against compound concentrations and Software GraphPad Prizm was used to calculate half maximal inhibitory concentrations (IC50 values).
In the case of `CC(N)C(=O)Nc1ccc(-c2ccccc2F)c(C#Cc2ccccc2)n1` (stereo not drawn) [Example 102, 2-amino-N-[5-(2-fluorophenyl)-6-(2-phenylethynyl)pyridin-2-yl]-propanamide], the IC50 is reported as 1980 nM. Molecule `CNC(C)C(=O)Nc1ccc(-c2cc(C(=O)OC)cc([N+](=O)[O-])c2)c(C#Cc2ccccc2)n1` (stereo not drawn) [Example 133, methyl 3-[6-[[2-(methylamino)-propanoyl]amino]-2-(2-phenyl-ethynyl)pyridin-3-yl]-5-nitrobenzoate] has an IC50 of 142 nM. `CCCc1ccc(NC(=O)C(C)N)nc1C#Cc1ccccc1` (stereo not drawn) [Example 167, 2-amino-N-[6-(2-phenylethynyl)-5-propylpyridin-2-yl]propanamide] was tested, and the IC50 was 874 nM. Work on `CNC(C)C(=O)Nc1ccc(N(C)C(=O)C2CCCC2)c(C#Cc2ccccc2)n1` (stereo not drawn) [Example 248, N-methyl-N-[6-[[2-(methyl-amino)propanoyl]amino]-2-(2-phenylethynyl)pyridin-3-yl]-cyclopentanecarboxamide] yielded an IC50 of 794 nM. In the case of `CNC(C)C(=O)Nc1ccc(-c2c(C)nc3ccccn23)c(C#Cc2ccc(F)c3ncccc23)n1` (stereo not drawn) [Example 84, N-[6-[2-(8-fluoroquinolin-5-yl)-ethynyl]-5-(2-methyl-imidazo[1,2-a]pyridin-3-yl)-pyridin-2-yl]-2-(methylamino)-propanamide], the IC50 is reported as 130 nM. Molecule `CC(N)C(=O)Nc1cccc(C#Cc2ccsc2)n1` (stereo not drawn) [Example 216, 2-amino-N-[6-(2-thiophen-3-ylethynyl)pyridin-2-yl]propanamide] has an IC50 of 2140 nM. `CNC(C)C(=O)Nc1ccc(N(C)C(=O)C2CCOCC2)c(C#Cc2ccccc2)n1` (stereo not drawn) [Example 244, N-methyl-N-[6-[2-(methylamino)propanoylamino]-2-(2-phenylethynyl)pyridin-3-yl]oxane-4-carboxamide] was tested, and the IC50 was 1470 nM. `CNC(C)C(=O)Nc1ccc(-c2cnccc2C#N)c(C#Cc2cc(F)cc(F)c2)n1` (stereo not drawn) [Example 160, N-[5-(4-cyanopyridin-3-yl)-6-[2-(3,5-difluorophenyl)ethynyl]-pyridin-2-yl]-2-(methylamino)-propanamide] was tested, and the IC50 was 474 nM. `CNC(C)C(=O)Nc1ccc(-c2cccc3c2ccn3C)c(C#Cc2ccccc2)n1` (stereo not drawn) [Example 142, 2-(methylamino)-N-[5-(1-methylindol-4-yl)-6-(2-phenyl-ethynyl)pyridin-2-yl]propanamide] showed an IC50 of 503 nM. For `CNC(C)C(=O)Nc1ccc(-c2ccnc3ccccc23)c(C#Cc2cc(F)cc(F)c2)n1` (stereo not drawn) [Example 152, N-[6-[2-(3,5-difluorophenyl)-ethynyl]-5-quinolin-4-ylpyridin-2-yl]-2-(methylamino)propanamide], the IC50 was 431 nM. With `CC(N)C(=O)Nc1cccc(C#Cc2ccco2)n1` (stereo not drawn) [Example 241, 2-amino-N-[6-[2-(furan-2-yl)ethynyl]pyridin-2-yl]propanamide] the IC50 was 3200 nM. `CNC(C)C(=O)Nc1ccc(-c2c(C)nc3ccccn23)c(C#Cc2ccc(-c3ccc(OC)cc3)cc2)n1` (stereo not drawn) [Example 65, N-[6-[2-[4-(4-methoxyphenyl)-phenyl]ethynyl]-5-(2-methyl-imidazo[1,2-a]pyridin-3-yl)-pyridin-2-yl]-2-(methylamino)-propanamide] showed an IC50 of 1190 nM. With `CC(N)C(=O)Nc1cccc(C#Cc2c(F)cccc2F)n1` (stereo not drawn) [Example 230, 2-amino-N-[6-[2-(2,6-difluorophenyl)ethynyl]pyridin-2-yl]propanamide] the IC50 was 2410 nM. For `CNC(C)C(=O)Nc1ccc(-c2c(C)nc(N(C)C)nc2C)c(C#Cc2ccc3ncccc3c2)n1` (stereo not drawn) [Example 76, N-[5-[2-(dimethylamino)-4,6-dimethylpyrimidin-5-yl]-6-(2-quinolin-6-ylethynyl)pyridin-2-yl]-2-(methylamino)propan-amide], the IC50 was 1070 nM. Molecule `CNC(C)C(=O)Nc1ccc(-c2c(C)nc(N3CCOCC3)nc2C)c(C#Cc2ccc(-c3cccnc3)cc2)n1` (stereo not drawn) [Example 86, N-[5-(4,6-dimethyl-2-morpholin-4-ylpyrimidin-5-yl)-6-[2-(4-pyridin-3-ylphenyl)-ethynyl]pyridin-2-yl]-2-(methyl-amino)propanamide] has an IC50 of 770 nM. Work on `CNC(C)C(=O)Nc1ccc(-c2cncc3ccccc23)c(C#Cc2ccc(OC)cc2)n1` (stereo not drawn) [Example 3, N-[5-isoquinolin-4-yl-6-[2-(4-methoxyphenyl)ethynyl]-pyridin-2-yl]-2-(methyl-amino)propanamide] yielded an IC50 of 1150 nM. `CC(N)C(=O)Nc1cc2ccccc2c(C#Cc2cncs2)n1` (stereo not drawn) [Example 227, 2-amino-N-[1-[2-(1,3-thiazol-5-yl)ethynyl]isoquinolin-3-yl]-propanamide] was tested, and the IC50 was 1890 nM. `CNC(C)C(=O)Nc1ccc(-c2c(-c3ccccc3)noc2C)c(C#Cc2ccc3ccccc3c2)n1` (stereo not drawn) [Example 156, 2-(methylamino)-N-[5-(5-methyl-3-phenyl-1,2-oxazol-4-yl)-6-(2-naphthalen-2-ylethynyl)pyridin-2-yl]propanamide] was tested, and the IC50 was 3180 nM. `CNC(C)C(=O)Nc1ccc(-c2c(C)nc3ccccn23)c(C#Cc2ccc(-c3ccncc3)cc2)n1` (stereo not drawn) [Example 91, 2-(methylamino)-N-[5-(2-methylimidazo[1,2-a]pyridin-3-yl)-6-[2-(4-pyridin-4-ylphenyl)-ethynyl]pyridin-2-yl]propan-amide] showed an IC50 of 267 nM. With `CC(N)C(=O)Nc1cc(Cl)cc(C#Cc2ccccc2)n1` (stereo not drawn) [Example 197, 2-amino-N-[4-chloro-6-(2-phenylethynyl)pyridin-2-yl]propanamide] the IC50 was 3180 nM. In the case of `CNC(C)C(=O)Nc1ccc(-c2c(C)ccc3c2cnn3C)c(C#Cc2ccc3ncccc3c2)n1` (stereo not drawn) [Example 21, N-[5-(1,5-dimethylindazol-4-yl)-6-(2-quinolin-6-ylethynyl)-pyridin-2-yl]-2-(methyl-amino)propanamide], the IC50 is reported as 540 nM. For `CNC(C)C(=O)Nc1ccc(-c2cncnc2C)c(C#Cc2ccc(C)c(C)c2)n1` (stereo not drawn) [Example 6, N-[6-[2-(3,4-dimethylphenyl)-ethynyl]-5-(4-methylpyrimidin-5-yl)pyridin-2-yl]-2-(methylamino)propan-amide], the IC50 was 214 nM. `CNC(C)C(=O)Nc1ccc(-c2cncnc2)c(C#Cc2ccc3c(c2)OCCCO3)n1` (stereo not drawn) [Example 2, N-(6-[2-(3,4-dihydro-2H-1,5-benzodioxepin-7-yl)ethynyl]-5-pyrimidin-5-ylpyridin-2-yl]-2-(methylamino)propanamide] gave an IC50 of 259 nM. Work on `CNC(C)C(=O)Nc1ccc(-c2cncc3ccccc23)c(C#Cc2ccc(F)cc2)n1` (stereo not drawn) [Example 4, N-[6-[2-(4-fluorophenyl)-ethynyl]-5-isoquinolin-4-ylpyridin-2-yl]-2-(methyl-amino)propanamide] yielded an IC50 of 643 nM. For `CC(N)C(=O)Nc1cccc(C#Cc2cccc(C(=O)OCC3CCOCC3)c2)n1` (stereo not drawn) [Example 214, oxan-4-ylmethyl 3-[2-[6-[[2-aminopropanoyl]-amino]pyridin-2-yl]ethynyl]benzoate], the IC50 was 7380 nM. Work on `CNC(C)C(=O)Nc1ccc(-c2cnc3ccccc3c2)c(C#Cc2ccc3ccccc3c2)n1` (stereo not drawn) [Example 98, 2-(methylamino)-N-[6-(2-naphthalen-2-ylethynyl)-5-quinolin-3-yl-pyridin-2-yl]propanamide] yielded an IC50 of 526 nM. `CNC(C)C(=O)Nc1ccc(-c2cnc3ccc(C#N)cn23)c(C#Cc2ccc3cnccc3c2)n1` (stereo not drawn) [Example 40, N-[5-(6-cyanoimidazo[1,2-a]-pyridin-3-yl)-6-(2-isoquinolin-6-ylethynyl)pyridin-2-yl]-2-(methylamino)propanamide] gave an IC50 of 445 nM.
